In the NIST ThermoML archive (doi:10.1021/je700339f):

Assay: xn = mol fraction of the nth substance listed
Settings: 298 K, Liquid

ClCCCCCCCl [1,6-dichlorohexane] + CC(=O)N(C)C
mass density [kg/m3]
Settings	x2 = 0.1002	x2 = 0.1985	x2 = 0.3002	x2 = 0.404	x2 = 0.4943	x2 = 0.6007	x2 = 0.7006	x2 = 0.8012	x2 = 0.8994
100 kPa	1054.5	1045.2	1034.5	1023.1	1012.3	998.8	985.3	970.4	954.6
500 kPa	1054.7	1045.5	1034.8	1023.4	1012.5	999	985.6	970.7	954.8
1000 kPa	1055.1	1045.9	1035.2	1023.7	1012.9	999.3	985.9	971	955.1
1500 kPa	1055.5	1046.2	1035.6	1024.1	1013.3	999.6	986.2	971.3	955.4
2000 kPa	1055.8	1046.6	1035.9	1024.4	1013.6	1000	986.5	971.6	955.7
2500 kPa	1056.2	1046.9	1036.2	1024.8	1013.9	1000.3	987	972	956.1
2900 kPa	–	–	–	–	1014.3	–	–	–	–
3000 kPa	1056.5	1047.3	1036.6	1025.1	–	1000.6	987.2	972.3	956.4
3500 kPa	1056.9	1047.6	1036.8	1025.4	1014.6	1001	987.6	972.6	956.6
4000 kPa	1057.2	1047.9	1037.2	1025.7	1014.9	1001.4	987.9	972.9	957
4500 kPa	1057.6	1048.3	1037.5	1026.1	1015.3	1001.6	988.2	973.2	957.2
5000 kPa	1057.9	1048.6	–	–	–	–	–	–	–
